Blank lines part the entries; values can stand above or below the molecule they belong to.
How the values were obtained:
ACC and FAS = experiment: ACC/FAS coupled SPA, effect of DMSO and purification reagents; format: biochemical, rat; settings: for effect on the enzyme reaction: ACC/FAS coupled SPA, FIG. 12
Protocol: (§1) The [^3H]-acetyl CoA mix in the final reaction was 20 μM with 0.25 μCi per assay (specific activity of 250 μCi/μmol).
Compound Dilution: Compounds were dissolved in 100% DMSO to obtain 10 mM stock solution. A serial dilution of the compounds in 100% DMSO was made first. Then the compounds were diluted 1:33.3 in buffer to obtain 10× compound solution in 3% DMSO. From this intermediate dilution, a further 10× dilution was made in the assay, resulting 0.3% final DMSO concentration in the assay.
For screening in drug discovery, compounds are routinely dissolved in 100% DMSO and then further diluted to 1% or lower DMSO in the final assay. The effect of DMSO on the ACC/FAS coupled assay was studied. […] At 1% DMSO, the total signal decreased 25% and the S/B was reduced from 15 to 12 with a greater inhibition observed at higher concentrations. Therefore, it may be desirable to keep the final DMSO concentrations in the assay below 0.3%, and not to exceed 1%.
Buffers containing sucrose, glycerol and polyethylene glycol (PEG) were used in the purification of ACC and FAS. In addition, the purified enzymes were stored in buffers containing 20% glycerol to increase long-term stability. In view of this, the effects of glycerol, sucrose and PEG on the enzyme activities were studied with the ACC/FAS coupled SPA.

[1] = target: T1, rat acetyl CoA carboxylase 1 (rACC) (Rattus norvegicus, UniProt P11497); experiment: ACC/FAS coupled scintillation proximity assay, reagent titrations (Km, Kact); format: biochemical; settings: other reagents saturating, acetyl CoA 20 μM, 37° C.
T1 construct: from tissue; host or cells: rat liver (rats fasted 36 h, then fed a fat-free carbohydrate diet for 48 h)
Protocol: The sequence of addition of the solution mixtures into each well of a custom 384-well phospholipid coated FLASHPLATE™ was as follows:
Step 1: Add 35 μl of enzyme mix in assay buffer.
Step 2: Add 5 μl of 3% DMSO or 10× compound in 3% DMSO.
Step 3: Incubate at room temperature for 10 min.
Step 5: Incubate the plate at 37° C. for 2 hours.
Step 6: Count the plate in a TOPCOUNT™ NXT for 2 min/well.

[2] = target: T2, rat fatty acid synthase (rFAS) (Rattus norvegicus, UniProt P12785); experiment: ACC/FAS coupled SPA, dependence of FAS activity on NADPH; format: biochemical; settings: FAS cofactor, varied in the ACC/FAS coupled assay
T2 construct: from tissue
Protocol: as §1
The Km values for these FAS substrates can be determined independently. In the present study, the dependence of FAS activity on NADPH was determined by varying the cofactor concentration (FIG. 10). […] In this study, NADPH was maintained at saturating concentration of 100 μM.

[3] = tested on: CC(=O)SCCNC(=O)CCNC(=O)[C@H](O)C(C)(C)COP(=O)(O)OP(=O)(O)OC[C@H]1O[C@@H](n2cnc3c(N)ncnc32)[C@H](O)[C@@H]1OP(=O)(O)O; experiment: purified protein, by the assay type; settings: other: from saturation curve, other reagents saturating, 37° C., pH 7.6

T2 sequence (P12785 whole entry): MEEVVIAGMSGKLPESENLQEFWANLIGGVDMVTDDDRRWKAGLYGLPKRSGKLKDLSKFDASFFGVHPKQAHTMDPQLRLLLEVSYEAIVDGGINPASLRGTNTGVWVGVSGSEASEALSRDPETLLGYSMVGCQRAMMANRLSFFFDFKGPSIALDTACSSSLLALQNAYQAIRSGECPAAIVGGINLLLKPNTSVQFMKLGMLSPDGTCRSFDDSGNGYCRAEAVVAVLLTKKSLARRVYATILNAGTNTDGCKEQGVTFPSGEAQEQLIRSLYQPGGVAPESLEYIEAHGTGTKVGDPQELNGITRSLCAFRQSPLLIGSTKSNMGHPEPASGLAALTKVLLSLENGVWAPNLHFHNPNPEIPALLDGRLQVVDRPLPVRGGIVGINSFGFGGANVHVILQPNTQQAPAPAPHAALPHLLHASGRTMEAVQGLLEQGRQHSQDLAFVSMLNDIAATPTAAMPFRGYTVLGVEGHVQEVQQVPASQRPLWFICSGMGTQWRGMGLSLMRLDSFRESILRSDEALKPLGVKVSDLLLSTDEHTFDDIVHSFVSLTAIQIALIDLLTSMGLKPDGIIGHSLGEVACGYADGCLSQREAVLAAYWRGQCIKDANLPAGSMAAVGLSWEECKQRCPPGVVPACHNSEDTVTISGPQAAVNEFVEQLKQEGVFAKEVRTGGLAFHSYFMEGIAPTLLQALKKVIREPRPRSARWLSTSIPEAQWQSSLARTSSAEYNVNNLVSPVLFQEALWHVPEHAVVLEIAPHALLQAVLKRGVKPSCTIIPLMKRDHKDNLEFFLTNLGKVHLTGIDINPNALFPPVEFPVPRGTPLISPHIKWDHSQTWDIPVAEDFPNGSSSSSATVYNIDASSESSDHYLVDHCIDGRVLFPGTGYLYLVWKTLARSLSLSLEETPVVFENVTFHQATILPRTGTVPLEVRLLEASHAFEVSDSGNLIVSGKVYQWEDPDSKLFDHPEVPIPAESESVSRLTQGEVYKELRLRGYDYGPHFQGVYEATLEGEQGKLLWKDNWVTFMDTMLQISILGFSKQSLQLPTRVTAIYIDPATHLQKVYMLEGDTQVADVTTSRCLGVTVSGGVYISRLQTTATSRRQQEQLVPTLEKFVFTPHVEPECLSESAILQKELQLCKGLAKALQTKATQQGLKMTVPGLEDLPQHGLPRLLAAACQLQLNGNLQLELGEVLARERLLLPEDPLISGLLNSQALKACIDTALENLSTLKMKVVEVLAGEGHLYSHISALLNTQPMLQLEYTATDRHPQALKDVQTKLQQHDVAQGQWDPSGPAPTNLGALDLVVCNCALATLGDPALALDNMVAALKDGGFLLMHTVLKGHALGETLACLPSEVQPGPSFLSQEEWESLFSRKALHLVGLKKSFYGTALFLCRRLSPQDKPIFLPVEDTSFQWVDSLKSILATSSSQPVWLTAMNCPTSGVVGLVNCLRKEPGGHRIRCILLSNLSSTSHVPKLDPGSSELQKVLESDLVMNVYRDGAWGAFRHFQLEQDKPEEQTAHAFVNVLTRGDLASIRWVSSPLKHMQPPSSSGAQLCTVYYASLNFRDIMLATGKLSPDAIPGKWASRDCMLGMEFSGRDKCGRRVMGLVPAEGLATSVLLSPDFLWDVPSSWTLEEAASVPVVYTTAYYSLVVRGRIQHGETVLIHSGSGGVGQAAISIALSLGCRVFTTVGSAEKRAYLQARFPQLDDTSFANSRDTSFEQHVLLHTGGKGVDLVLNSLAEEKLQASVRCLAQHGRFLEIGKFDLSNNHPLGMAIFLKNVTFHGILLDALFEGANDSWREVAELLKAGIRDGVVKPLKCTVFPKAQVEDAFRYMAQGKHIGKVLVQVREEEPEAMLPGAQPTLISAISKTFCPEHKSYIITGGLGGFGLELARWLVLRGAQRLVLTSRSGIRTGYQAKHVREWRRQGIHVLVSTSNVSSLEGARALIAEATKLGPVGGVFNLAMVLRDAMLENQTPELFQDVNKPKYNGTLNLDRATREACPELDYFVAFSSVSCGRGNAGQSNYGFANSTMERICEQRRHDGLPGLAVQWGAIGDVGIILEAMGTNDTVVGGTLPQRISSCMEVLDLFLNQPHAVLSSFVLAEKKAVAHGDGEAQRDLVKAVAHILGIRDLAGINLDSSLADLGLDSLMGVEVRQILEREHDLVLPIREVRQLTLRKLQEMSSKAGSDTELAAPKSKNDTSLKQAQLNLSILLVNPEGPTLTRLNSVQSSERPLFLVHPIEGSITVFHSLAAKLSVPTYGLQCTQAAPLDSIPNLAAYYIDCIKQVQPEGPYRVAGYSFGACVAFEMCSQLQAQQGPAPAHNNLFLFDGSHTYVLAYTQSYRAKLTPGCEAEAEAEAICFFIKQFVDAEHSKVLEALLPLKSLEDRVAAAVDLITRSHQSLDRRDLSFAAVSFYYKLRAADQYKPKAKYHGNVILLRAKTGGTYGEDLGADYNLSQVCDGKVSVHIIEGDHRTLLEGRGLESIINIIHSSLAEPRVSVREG

Molecule: C[S+](C)[O-] [DMSO]
effect on the activity of FAS or ACC (ACC and FAS; DMSO concentrations up to 0.3%): no significant effect
decrease of total signal (ACC and FAS; at 1% DMSO): 25%

Kact (half-maximal saturation value) [1]: 6.3 mM
Molecule: [Cl-].[Cl-].[Mg+2] [MgCl2]

Km [2]: 28 µM
Molecule: NC(=O)C1=CN([C@@H]2O[C@H](COP(=O)(O)OP(=O)(O)OC[C@H]3O[C@@H](n4cnc5c(N)ncnc54)[C@H](OP(=O)(O)O)[C@@H]3O)[C@@H](O)[C@H]2O)C=CC1 [NADPH]

Km ([1]; from saturation curve): 1700 µM
Molecule: O=C([O-])O.[Na+] [NaHCO3]

Molecule: OCC(O)CO [glycerol]
effect on the enzyme reaction (ACC and FAS): none of these reagents have any significant effect

Molecule: OC[C@H]1O[C@@](CO)(O[C@H]2O[C@H](CO)[C@@H](O)[C@H](O)[C@H]2O)[C@@H](O)[C@@H]1O [sucrose]
effect on the enzyme reaction (ACC and FAS): none of these reagents have any significant effect

Molecule: rat acetyl CoA carboxylase 1 (rACC) (Rattus norvegicus)
Km [3]: 47 µM

Source: patent US7384757B2 (Bristol-Myers Squibb Company, priority 2004, dated 2008)
